Our source for the DC50, AUC(0-inf) and IC50 values is US20250051347A1, “BIFUNCTIONAL CHIMERIC HETEROCYCLIC COMPOUND AND USE THEREOF AS ANDROGEN RECEPTOR DEGRADER” (Hinova Pharmaceuticals, Inc., priority 2021, published 2025).

The target in data set [1] is T1, androgen receptor (AR) splicing variant AR-v7 (Homo sapiens, UniProt P10275).
T1 construct: The degradation activity of compounds on AR-v7 in 22RV1 cells; host or cells: 22RV1 cells
T1 sequence (P10275 1-644 isoform P10275-3): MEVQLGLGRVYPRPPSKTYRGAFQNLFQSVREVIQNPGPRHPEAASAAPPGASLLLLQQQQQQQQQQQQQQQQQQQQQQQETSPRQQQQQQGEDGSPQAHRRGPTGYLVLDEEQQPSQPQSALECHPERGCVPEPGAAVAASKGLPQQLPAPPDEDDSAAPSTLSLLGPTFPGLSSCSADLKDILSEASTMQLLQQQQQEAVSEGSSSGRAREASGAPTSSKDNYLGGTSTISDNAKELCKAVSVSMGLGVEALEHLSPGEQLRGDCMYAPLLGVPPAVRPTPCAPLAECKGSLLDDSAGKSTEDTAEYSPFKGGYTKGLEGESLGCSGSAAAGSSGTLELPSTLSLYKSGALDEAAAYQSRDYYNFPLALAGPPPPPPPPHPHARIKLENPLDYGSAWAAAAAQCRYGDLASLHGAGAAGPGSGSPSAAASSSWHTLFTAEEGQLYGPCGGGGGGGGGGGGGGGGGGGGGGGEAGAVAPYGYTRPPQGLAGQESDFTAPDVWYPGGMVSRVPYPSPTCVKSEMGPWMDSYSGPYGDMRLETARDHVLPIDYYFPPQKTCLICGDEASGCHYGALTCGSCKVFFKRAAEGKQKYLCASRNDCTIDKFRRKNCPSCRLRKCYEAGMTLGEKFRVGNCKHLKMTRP
In words: Degradation activity on androgen receptor splicing variant AR-v7 in 22RV1 cells (ELISA). It counts as cell-based. The settings on record: AR-v7 degradation in 22RV1 cells, 48 h, class symbols. A general note: ELISA stands for enzyme-linked immunosorbent assay.

Data set [2] in a line: Pharmacokinetics in mice (plasma exposure after oral administration). It counts as in vivo. The note with it: mouse, ICR mice, oral (i.g.) 3 mg/kg, read-out: After oral administration of 3 mg/kg, mouse plasma exposure AUCinf. Here is the method: • LC-20AD high performance liquid chromatography (SHIMADZU, Japan) • API4000 triple quadrupole mass spectrometer (Applied Biosystem, USA) • Phenix Winnolin Pharmacokinetic software (Version 6.3, Certara, USA) • High speed freezing centrifuge (Thermo Fisher Scientific) • Analytical balance (Sartorius, SECURA225D-ICN) • ICR mice (Chengdu Dossy Experimental Animals CO., LTD.)
A suitable amount of drug was accurately weighed, and then the medium (5% DMSO, 15% HS-15, 80% DSW) was added to prepare the solution at a concentration of 0.1 mg/ml (i.v.) and 0.3 mg/ml (i.g.).
18 healthy adult ICR mice were divided into two groups (9 mice for i.v. group; 9 mice for i.g. group), and administered by tail vein or by gavage after fasting overnight (free drinking water); using the satellite blood collection method, 3 animals were collected at each time point, and then 0.1 ml of blood obtained at different time points was anticoagulated with EDTA-K2, centrifuged at 4° C. for 5 min to separate the plasma, and stored at −80° C. for detection. The sampling time points after i.v. administration were 5 min, 15 min, 0.5 h, 1 h, 2 h, 4 h, 8 h, 12 h, and 24 h; while the sampling time points for i.g. group were before administration (0 h) as well as 0.5 h, 1 h, 2 h, 4 h, 6 h, 8 h, 12 h, and 24 h after administration. Then, the drug concentration in plasma was determined by LC/MS/MS.

Another data set deals with 22RV1 cells. The note with it: Homo sapiens, 22Rv1, 144 h, read-out: 22RV1 IC50 (nM), 22RV1 cells, 6 days culture, CCK-8, OD 450 nm.

SMILES strings stand for the structures. Bounds are passed on as bounds.

As usually defined, the DC50 is the midpoint of the concentration-degradation curve. Low readings indicate degradation at low concentration, high ones degradation only at high concentration. `CC(C)(c1ccc(OCc2ccnc(N3CC4(CNC4)C3)n2)cc1)c1ccc(O[C@H]2C[C@H](Nc3ccc4c(c3)C(=O)N(C3CCC(=O)NC3=O)C4=O)C2)cc1` (stereo partly shown) [Example 82, 5-(((1r,3r)-3-(4-(2-(4-((2-(2,6-diazaspiro[3.3]heptan-2-yl)pyrimidin-4-yl)methoxy)phenyl)propan-2-yl)phenoxy)cyclobutyl)amino)-2-(2,6-dioxopiperidin-3-yl)isoindolin-1,3-dione] displayed a DC50 in data set [1] of 0.011 to 0.1 µM. Besides, the AUC(0-inf) in data set [2] was in the range of 0.1 to 1 µg·h/mL. As to `CC(C)(c1ccc(OCc2ccnc(N3CC4(COC4)C3)n2)cc1)c1ccc(O[C@H]2C[C@@H](Nc3cc4c(cc3F)C(=O)N(C3CCC(=O)NC3=O)C4=O)C2)cc1` (stereo partly shown) [Example 90, 5-(((1s,3s)-3-(4-(2-(4-((2-(2-oxa-6-azaspiro[3.3]heptane-6-yl)pyrimidin-4-yl)methoxy)phenyl)propan-2-yl)phenoxy)cyclobutyl)amino)-2-(2,6-dioxopiperidin-3-yl)-6-fluoroisoindolin-1,3-dione], the DC50 in data set [1] is 0.011 to 0.1 µM. Further, the AUC(0-inf) in data set [2] fell in the range of 1 to 5 µg·h/mL. In the same order, the values of `O=C1CCC(N2C(=O)c3ccc(N[C@H]4C[C@H](Oc5ccc(Oc6ccc(Oc7ncc(-n8nccn8)cn7)cc6)cc5)C4)cc3C2=O)C(=O)N1` (stereo partly drawn) [Example 122, 5-(((trans)-3-(4-(4-((5-(2H-1,2,3-triazol-2-yl)pyrimidin-2-yl)oxy)phenoxy)phenoxy)cyclobutyl)amino)-2-(2,6-dioxopiperidin-3-yl)isoindolin-1,3-dione] are 0.011 to 0.1 µM and 5 to 30 µg·h/mL. Regarding `CC(C)(c1ccc(OCc2ccnc(N3CC4(COC4)C3)n2)cc1)c1ccc(OC2CN(Cc3ccc4c(c3)C(=O)N(C3CCC(=O)NC3=O)C4=O)C2)cc1` (stereo not shown) [Example 148], the DC50 in data set [1] was 0.101 to 1 µM. The AUC(0-inf) in data set [2] lay within 1 to 5 µg·h/mL. In the same order, the values of `CC(C)(c1ccc(Oc2ccnc(-n3nccn3)c2)cc1)c1ccc(O[C@H]2C[C@H](Nc3ccc4c(c3)C(=O)N(C3CCC(=O)NC3=O)C4=O)C2)cc1` (stereo partly shown) [Example 164] are 0.011 to 0.1 µM and 5 to 30 µg·h/mL. In the same order, the values of `Cc1nnc(-c2ccnc(Oc3ccc(C(C)(C)c4ccc(O[C@H]5C[C@H](Nc6ccc7c(c6)C(=O)N(C6CCC(=O)NC6=O)C7=O)C5)cc4)cc3)n2)o1` (stereo partly shown) [Example 171] are 0.011 to 0.1 µM and 5 to 30 µg·h/mL. In data set [1], `CC(C)(c1ccc(OCc2ccnc(O[C@@H]3CCNC3)n2)cc1)c1ccc(O[C@H]2C[C@@H](Nc3ccc4c(c3)C(=O)N(C3CCC(=O)NC3=O)C4=O)C2)cc1` (stereo partly shown) [Example 242] showed a 50% degradation concentration (DC50) of 0.011 to 0.1 µM. Further, in data set [2], the AUC(0-inf) fell in the range of 0.1 to 1 µg·h/mL. For `Cc1noc(-c2cccc(COc3ccc(C(C)(C)c4ccc(O[C@H]5C[C@H](Nc6ccc7c(c6)C(=O)N(C6CCC(=O)NC6=O)C7=O)C5)cc4)cc3)n2)n1` (stereo partly shown) [Example 282], the DC50 in data set [1] fell in the range of 0.011 to 0.1 µM. Also, the AUC(0-inf) in data set [2] lay within 1 to 5 µg·h/mL. As to `CC(C)(c1ccc(OCc2ccnc(NCC3CNC3)n2)cc1)c1ccc(O[C@H]2C[C@@H](Nc3ccc4c(c3)C(=O)N(C3CCC(=O)NC3=O)C4=O)C2)cc1` (stereo partly shown) [Example 406], the AUC(0-inf) in data set [2] was 0.1 to 1 µg·h/mL. The term IC50 denotes the concentration at which inhibition is half-maximal. On to `CC(C)(c1ccc(Oc2nncs2)cc1)c1ccc(O[C@H]2C[C@H](Nc3ccc4c(c3)C(=O)N(C3CCC(=O)NC3=O)C4=O)C2)cc1` (stereo partly shown) [Example 592], for which, in data set [1], the half-maximal degradation concentration (DC50) was less than 0.01 µM. Also, in the data set with 22RV1 cells, the IC50 amounted to 8 nM. In the same order, the values of `CC(O)c1cnc(Oc2ccc(C(C)(C)c3ccc(O[C@H]4C[C@H](Nc5ccc6c(c5)C(=O)N(C5CCC(=O)NC5=O)C6=O)C4)cc3)cc2)cn1` (stereo partly shown) [Example 595] are less than 0.01 µM and 4 nM. In the same order, the values of `CC(=O)c1cnc(Oc2ccc(C(C)(C)c3ccc(O[C@H]4C[C@H](Nc5ccc6c(c5)C(=O)N(C5CCC(=O)NC5=O)C6=O)C4)cc3)cc2)cn1` (stereo partly shown) [Example 596] are less than 0.01 µM and 10 nM. In the same order, the values of `Cc1nc(-c2cnc(Oc3ccc(C4(c5ccc(O[C@H]6C[C@H](Nc7ccc8c(c7)C(=O)N(C7CCC(=O)NC7=O)C8=O)C6)cc5)CCCC4)cc3)cn2)no1` (stereo partly shown) [Example 601] are less than 0.01 µM and 11 nM.
